In patent US7355063B2, “Shogaol compound and tyrosinase activity inhibitor comprising the compound” (Toagosei Co., Ltd., priority 2003, dated 2008):

Columns and labels:
[1] = target: T1, hyaluronic acid-degrading enzyme (derived from bovine testicles, Type IV-S) (Bos taurus, UniProt Q2YDK3); assay: Hyaluronic acid-degrading enzyme activity inhibition test; format: biochemical
T1 construct: derived from bovine testicles manufactured by Sigma Corporation, Type IV-S; purchased Sigma Corporation Type IV-S; host or cells: bovine testicles
T1 sequence (Q2YDK3 36-553): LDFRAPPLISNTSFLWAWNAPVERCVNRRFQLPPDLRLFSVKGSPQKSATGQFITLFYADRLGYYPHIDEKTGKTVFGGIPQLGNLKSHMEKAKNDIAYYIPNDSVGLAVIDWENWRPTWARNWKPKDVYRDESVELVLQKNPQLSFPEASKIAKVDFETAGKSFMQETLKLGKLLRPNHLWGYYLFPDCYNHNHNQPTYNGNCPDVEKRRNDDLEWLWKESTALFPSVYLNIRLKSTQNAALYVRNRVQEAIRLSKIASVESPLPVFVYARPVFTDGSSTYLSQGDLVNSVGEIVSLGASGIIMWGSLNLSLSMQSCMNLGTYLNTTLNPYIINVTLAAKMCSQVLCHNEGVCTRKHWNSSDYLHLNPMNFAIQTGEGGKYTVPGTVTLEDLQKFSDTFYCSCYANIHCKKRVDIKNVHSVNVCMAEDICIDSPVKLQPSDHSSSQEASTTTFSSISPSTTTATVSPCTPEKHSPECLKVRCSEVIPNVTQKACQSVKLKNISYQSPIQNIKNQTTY
Description: Using the compound 7 obtained in Example 2, the compound 34, and magnesium ascorbate phosphate as a comparative control, a hyaluronic acid-degrading enzyme activity inhibition test was carried out.
(§1) First, the following solutions shown in A to H were each prepared. • A: 0.1M acetate buffer solution was prepared by dissolving 0.60 g of acetic acid in 100 ml of distilled water. • B: A hyaluronidase solution was prepared by dissolving 7.2 mg of a hyaluronic acid-degrading enzyme (derived from bovine testicles manufactured by Sigma Corporation, Type IV-S) into 3.0 ml of the acetate buffer (prepared in the above A). • C: An activator solution was prepared by dissolving 1.0 mg of compound 48/80 (a hyaluronidase activator manufactured by Sigma Corporation) into 10.0 ml of the acetate buffer (prepared in the above A). • D: A hyaluronic acid solution was prepared by dissolving 12.0 mg of potassium hyaluronate (manufactured by Wako Pure Chemical Industries, Ltd.) into 15.0 ml of the acetate buffer (prepared in the above A). • E: A 0.4N sodium hydroxide aqueous solution was prepared by dissolving 1.60 g of sodium hydroxide into 100 ml of distilled water. • F: After 4.95 g of boric acid was dissolved into 50 ml of distilled water, a 1N sodium hydroxide aqueous solution was added until pH reached 9.1. Subsequently, the whole amount was made 100 ml by adding distilled water. • G: 1.0 g of p-dimethylaminobenzaldehyde, 1.25 ml of 10N hydrochloric acid, and 8.75 ml of acetic acid were mixed. The solution was used after the whole amount was made 100 ml by adding acetic acid immediately before use. • H: Each test compound was dissolved in the acetate buffer (prepared in the above A) so the final test concentration became 0.5 mg/ml and 1.0 mg/ml.
Next, the experimental operation was carried out with the procedures shown in the following (1) to (8).
(1) 0.2 ml of the test compound solution (prepared in the above H) and 0.1 ml of the hyaluronic acid-degrading enzyme solution (prepared in the B) were mixed and the whole was incubated at 37° C. for 20 minutes.
(2) To the above reaction solution was added 0.2 ml of the activator solution (prepared in the above C) and the whole was incubated at 37° C. for 20 minutes.
(3) To the above reaction solution was added 0.5 ml of the hyaluronic acid solution (prepared in the above D), and the whole was incubated at 37° C. for 40 minutes.
(4) To the above reaction solution was added 0.2 ml of the 0.4N sodium hydroxide aqueous solution (prepared in the above E), and the whole was cooled in an ice bath.
(5) To the above reaction solution was added 0.2 ml of the boric acid solution (prepared in the above F), and the whole was heated at 100° C. for 3 minutes.
(6) The above reaction solution was cooled in an ice bath.
(7) To the above reaction solution was added 3.0 ml of the p-dimethylaminobenzaldehyde solution (prepared in the above G), and the whole was incubated at 37° C. for 20 minutes.
(8) Absorbance of the reaction solution at 585 nm was measured using a spectrophotometer.
The above experimental operations were repeated three times, and the resulting numeric value was inserted in the following calculation formula and a mean value thereof was regarded as a hyaluronic acid-degrading enzyme activity inhibition ratio (%). Hyaluronic acid-degrading enzyme activity inhibition ratio (%)=(A−B)/A×100
A=absorbance obtained at the time when operation was carried out with addition of no test compound
B=absorbance obtained at the time when operation was carried out with addition of test compound
The compounds of the invention and magnesium ascorbate phosphate were each used in an enzymatic reaction solution in amounts of 0.1 mg/ml, 0.2 mg/ml, and 0.4 mg/ml, and the results were shown in Table 7 (since the compound 7 was not dissolved in a concentration of 0.4 mg/ml, the test was not carried out).

[2] = Test of scavenging DPPH radical (Test Example 8, 517 nm); settings: final concentration of 10 μg/mL; 20 minutes, room temperature
Description: Using the compound 7 obtained in Example 2 as well as dl-α-tocopherol (manufactured by Tokyo Kasei Kogyo Co., Ltd.) and butylhydroxytoluene (BHT) as comparative controls, a test of scavenging DDPH (1,1-diphenyl-2-picrylhydrazyl) radical, a stable radical, was carried out.
1 ml of 200 μM DPPH ethanol solution was added to 800 μl of 100 mM Tris-HCl buffer (pH 7.4) and 200 μl of an ethanol solution of the compound 7 (a final concentration of 10 μg/mL), followed by sufficient stirring. After the resulting mixture was allowed to stand in a dark place at room temperature for 20 minutes, the absorbance at 517 nm was measured (absorbance of the test solution)
The compound 13 of the invention as well as dl-α-tocopherol and butylhydroxytoluene as a known radical scavenger were similarly tested.
As a control, 800 μl of 100 mM Tris-HCl buffer (pH 7.4), 200 μl of ethanol, and 1 ml of 200 μM DPPH ethanol solution were used in the same manner as described above and the absorbance was measured (absorbance of the control solution).
With the individual compounds, the same measurement was repeated three times, and the mean value was inserted in the following formula to calculate a DPPH radical-scavenging ratio (%). DPPH radical-scavenging ratio (%)=[1−(absorbance of sample solution/absorbance of control solution)]×100

[3] = Dissolution of test compound for the hyaluronic acid-degrading enzyme test; format: physicochemical; settings: concentration of 0.4 mg/ml, acetate buffer
Description: as §1, with “The solution was used after the whole amount was made 100 ml by adding acetic acid immediately before use. • H: Each test compound was dissolved in the acetate buffer (prepared in the above A) so the final test concentration became 0.5 mg/ml and 1.0 mg/ml.” left out

mushroom tyrosinase = assay: Tyrosinase activity inhibition test using L-dopa as substrate (Test Examples 1 and 2, absorbance at 475 nm); format: biochemical; settings: Table 1
Description: Using the compound 7 obtained in Example 2, the compound 13 obtained in Example 5, a mixture of the compound 18 and the compound 19 (existing molar ratio 45:55) obtained in Example 7, and arbutin (manufactured by Tokyo Kasei Kogyo Co., Ltd.) as a comparative control, a tyrosinase activity inhibition test was carried out using L-dopa as a substrate.
The specific test procedures are as follows. • (1) 1.80 ml of a phosphate buffer prepared by dissolving 1.000 g of sodium dihydrogen phosphate and 1.186 g of disodium hydrogen phosphate in 500 ml of distilled water, 1.00 ml of a substrate solution prepared by dissolving 32.7 mg of L-DOPA in 200 ml of distilled water, and 0.10 ml of a test solution prepared by dissolving the test compound in dimethyl sulfoxide were mixed together. • (2) 0.10 ml of an enzyme solution prepared by dissolving 3.0 mg (2400 units; manufactured by Sigma Corporation) of mushroom tyrosinase in 7.0 ml of distilled water was added to the solution prepared in (1), and the whole was stirred for 15 seconds. The resulting solution was maintained at 25° C., and the absorbance at 475 nm was measured one minute and 45 seconds later and 2 minutes and 45 seconds later. • (3) The test operations in the above (1) and (2) were conducted three times for the individual test compounds and blank test (only dimethyl sulfoxide), and the resulting numeric value was inserted in the following calculation formula and a mean value thereof was regarded as a tyrosinase activity inhibition ratio (%). Tyrosinase activity inhibition ratio (%)=[(T^1−T^2)/T^1]×100 • T^1=difference in absorbance of solution with addition of no test compound between 2 minutes and 45 seconds later and one minute and 45 seconds later • T^2=difference in absorbance of solution with addition of test compound was added between 2 minutes and 45 seconds later and one minute and 45 seconds later
Using the compound 40 obtained in Example 24 and arbutin (manufactured by Tokyo Kasei Kogyo Co., Ltd.) as a comparative control, a tyrosinase activity inhibition test was carried out using L-dopa as a substrate. The test procedure was in accordance with Test Example 1.

COc1cc(CCC(=O)/C=C/CCCCCCC(=O)O)ccc1O [Compound 7]
Hyaluronic acid-degrading enzyme activity inhibition ratio (%) ([1]; 0.1 mg/mL): 10.6% | Hyaluronic acid-degrading enzyme activity inhibition ratio (%) ([1]; 0.2 mg/mL): 41.3% | DPPH radical-scavenging ratio (%) [2]: 33.7% | Solubility in the test solution [3]: not dissolved | Tyrosinase activity inhibition ratio (%) (mushroom tyrosinase; 0.5 mg/mL in enzymatic reaction solution): 59.8% | Tyrosinase activity inhibition ratio (%) (mushroom tyrosinase; 1 mg/mL in enzymatic reaction solution): 77.1%
